Data reported in article PMC6170555, “Synthesis of novel (E)-1-(2-(2-(4(dimethylamino) benzylidene) hydrazinyl)-4-methylthiazol-5-yl)ethanone derivatives as ecto-5′-nucleotidase inhibitors” (Royal Society Open Science, 2018).

Key:
h-e5′NT = target: T1, h-e5′NT (Homo sapiens, UniProt P21589); experiment: Ecto-5′-nucleotidase inhibition assay (capillary electrophoresis), human enzyme; assay type: biochemical; conditions: for IC50 / inhibition at 100 µM: mean ± s.e.m., n = 3; for IC50: substrate AMP 500 µM; for inhibition at 100 µM: compound at 0.1 mM, read-out: h-e5′NT percentage inhibition ± s.e.m.; for inhibitory potential toward h-e5′NT after initial screening: initial screening at 0.1 mM
T1 construct: made in house; host or cells: COS-7 cells, transiently transfected; sonicated extract / membrane fraction
T1 sequence (P21589 27-574): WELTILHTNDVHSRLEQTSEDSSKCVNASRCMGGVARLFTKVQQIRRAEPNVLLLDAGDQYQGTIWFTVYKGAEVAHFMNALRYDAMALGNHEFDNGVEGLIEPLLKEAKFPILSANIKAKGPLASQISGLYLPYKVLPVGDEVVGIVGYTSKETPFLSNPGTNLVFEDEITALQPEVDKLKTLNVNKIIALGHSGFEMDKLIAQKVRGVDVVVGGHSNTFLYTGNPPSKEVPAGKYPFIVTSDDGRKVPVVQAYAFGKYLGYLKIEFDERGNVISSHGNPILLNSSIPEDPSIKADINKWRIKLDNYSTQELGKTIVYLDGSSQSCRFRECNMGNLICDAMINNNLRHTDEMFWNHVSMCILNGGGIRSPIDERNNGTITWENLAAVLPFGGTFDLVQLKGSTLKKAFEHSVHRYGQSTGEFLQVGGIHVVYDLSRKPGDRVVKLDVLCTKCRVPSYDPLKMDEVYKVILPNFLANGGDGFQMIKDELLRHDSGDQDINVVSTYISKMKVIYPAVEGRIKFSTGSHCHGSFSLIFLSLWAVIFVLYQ
Procedure: (§1) The plasmids expressing e5′NT, either rat or human, were used to transfect the COS-7 cells through lipofectamine. The confluent cells were allowed to incubate in DMEM/F-12 having plasmid DNA (6 µg) and transfecting reagent (24 µl) for 5 h at ambient temperature (37°C). To discontinue transfection, a specified volume of DMEM/F-12 was added, containing FBS (20%). These cells were then harvested after 2–3 days.
(§2) The transfected cells were separated from harvesting buffer (45 mM Tris buffer, 95 mM NaCl, and 0.1 mM PMSF, pH 7.5) through scraping, followed by washing with Tris buffer and then allowed to centrifuge by spinning at 300 r.p.m. at 4°C for 5 min [30]. Finally, the cells remained suspended in harvesting buffer solution containing aprotinin (10 µg ml^−1). As a result of sonication, the produced cellular debris was removed by cold centrifugation operated at 300 r.p.m. for 10 min. Glycerol (7.5%) was mixed with the resultant supernatant. The Bradford microplate assay was employed for estimation of protein concentration where albumin was used as a standard.
(§3) The e5′NT inhibition assay was performed with respect to our previously described procedure on P/ACE MDQ capillary electrophoresis system (Beckman Instruments, Fullerton, CA, USA) provided with UV detection system. The samples were prepared in the assay buffer (1 mM CaCl2, 10 mM Tris HCl and 2 mM MgCl2, pH 7.4) and analysed at 0.1 mM concentration. The total assay volume (100 µl) comprises sample (10 µl), 10 µl of h-e5′NT (6.94 µg ml^−1) protein extract or r-e5′NT (7.17 µg ml^−1) and 70 µl of assay buffer. The above mixture was allowed to incubate at 37°C for 10 min. Subsequently, biochemical reaction was started with the addition of substrate (10 µl) and AMP (500 µM). The mixture was incubated again for 30 min at 37°C. The enzyme-substrate reaction was stopped by thermal denaturation for the duration of 20 min by placing the mixture in a water bath at 99°C. Then, 50 µl of obtained mixture was filled into CE mini vials and injected with 0.5 psi into the capillary in 5 s, whereas 15 kV was set to split-up substrate and product peaks. […] Therefore, successive dilution of each active compound was made and different inhibitor concentrations were assayed to obtain the dose–response curve against both enzymes. All experiments were conducted thrice. The nonlinear regression analysis program (PRISM 5.0) was employed to calculate IC50 value.

r-e5′NT = target: T2, r-e5′NT (Rattus norvegicus, UniProt P21588); experiment: Ecto-5′-nucleotidase inhibition assay (capillary electrophoresis), rat enzyme; assay type: biochemical; conditions: for inhibition at 100 µM: compound at 0.1 mM, read-out: r-e5′NT percentage inhibition ± s.e.m.; for inhibition at 100 µM / IC50: mean ± s.e.m., n = 3; for inhibitory potential toward r-e5′NT after initial screening: initial screening at 0.1 mM; for IC50: substrate AMP 500 µM
T2 construct: made in house; host or cells: COS-7 cells, transiently transfected; sonicated extract / membrane fraction
T2 sequence (P21588 29-576): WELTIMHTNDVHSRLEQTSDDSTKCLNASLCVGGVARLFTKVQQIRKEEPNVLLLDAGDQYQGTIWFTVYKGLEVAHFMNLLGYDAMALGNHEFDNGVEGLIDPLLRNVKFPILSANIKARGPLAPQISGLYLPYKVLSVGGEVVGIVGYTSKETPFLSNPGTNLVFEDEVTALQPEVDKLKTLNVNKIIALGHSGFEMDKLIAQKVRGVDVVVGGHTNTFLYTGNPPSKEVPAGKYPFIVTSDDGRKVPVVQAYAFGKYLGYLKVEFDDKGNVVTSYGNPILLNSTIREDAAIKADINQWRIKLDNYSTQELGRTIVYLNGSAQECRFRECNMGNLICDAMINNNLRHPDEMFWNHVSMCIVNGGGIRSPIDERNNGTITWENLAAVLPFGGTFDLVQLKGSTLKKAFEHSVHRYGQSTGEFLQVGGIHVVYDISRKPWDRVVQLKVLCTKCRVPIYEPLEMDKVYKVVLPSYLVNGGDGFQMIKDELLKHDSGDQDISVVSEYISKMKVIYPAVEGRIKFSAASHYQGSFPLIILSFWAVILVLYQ
Procedure: as §1, §2, §3

SMILES	IC50 (h-e5′NT) [µM]	inhibition at 100 µM (r-e5′NT) [%]	inhibition at 100 µM (h-e5′NT) [%]	inhibitory potential toward h-e5′NT after initial screening (h-e5′NT)	inhibitory potential toward r-e5′NT after initial screening (r-e5′NT)	IC50 (r-e5′NT) [µM]	potency against h-e5′NT relative to r-e5′NT (h-e5′NT; ratio of IC50 r-e5′NT / h-e5′NT) [fold]	inhibition against h-e5′NT compared with positive control sulfamic acid (h-e5′NT; ratio of IC50 sulfamic acid / compound) [fold]
CC(=O)c1sc(N/N=C/c2cc3ccccc3[nH]2)nc1C [3f, (E)-1-(2-(2-((1H-indol-2-yl)methylene)hydrazinyl)-4-methylthiazol-5-yl)ethanone]	6.19 ± 0.32	32.7 ± 1.62						
CC(=O)c1sc(N/N=C/c2ccco2)nc1C [3c, (E)-1-(2-(2-(furan-2-ylmethylene)hydrazinyl)-4-methylthiazol-5-yl)ethanone]		15.3 ± 2.78	38.1 ± 5.47	no inhibitory potential	no inhibitory potential			
CC(=O)c1sc(N/N=C/c2ccc[nH]2)nc1C [3e, (E)-1-(2-(2-((1H-pyrrol-2-yl)methylene)hydrazinyl)-4-methylthiazol-5-yl)ethanone]	3.36 ± 0.12	10.8 ± 4.25						
NS(=O)(=O)O [sulfamic acid, reference compound]	42.1 ± 7.8					77.3 ± 7.01		
CC(=O)c1sc(N/N=C/c2ccc(C)o2)nc1C [3d, (E)-1-(4-methyl-2-(2-((5-methylfuran-2-yl)methylene)hydrazinyl)thiazol-5-yl)ethanone]		12.3 ± 3.91	43.6 ± 1.18	no inhibitory potential	no inhibitory potential			

The remaining compounds from weak to strong by IC50 (h-e5′NT), led by results:

IC50 (h-e5′NT) [µM]	inhibition at 100 µM (r-e5′NT) [%]	inhibition at 100 µM (h-e5′NT) [%]	inhibitory potential toward h-e5′NT after initial screening (h-e5′NT)	inhibitory potential toward r-e5′NT after initial screening (r-e5′NT)	IC50 (r-e5′NT) [µM]	potency against h-e5′NT relative to r-e5′NT (h-e5′NT; ratio of IC50 r-e5′NT / h-e5′NT) [fold]	inhibition against h-e5′NT compared with positive control sulfamic acid (h-e5′NT; ratio of IC50 sulfamic acid / compound) [fold]	SMILES
0.56 ± 0.07					10.1 ± 0.58			CC(=O)c1sc(N/N=C/c2ccc(N(C)C)cc2)nc1C [3b, (E)-1-(2-(2-(4-(dimethylamino)benzylidene)hydrazinyl)-4-methylthiazol-5-yl)ethanone]
0.32 ± 0.03					7.81 ± 0.89	24	132	CC(=O)c1sc(N/N=C/c2cccnc2)nc1C [3a, (E)-1-(4-methyl-2-(2-(pyridin-3-ylmethylene)hydrazinyl)thiazol-5-yl)ethanone]
